{"source": "patent EP3800188A1", "about": "“SUBSTITUTED PYRAZOLOPYRIMIDINES AS IRAK4 INHIBITORS” (Bayer AG, priority 2019, dated 2021)"}
{"target": "T1, human IRAK4 (Homo sapiens, UniProt Q9NWZ3)", "T1 construct": "GST (N); made in house; host or cells: baculovirus-infected Hi5 (BTI-TN-5B1-4) insect cells", "T1 sequence (Q9NWZ3 1-460)": "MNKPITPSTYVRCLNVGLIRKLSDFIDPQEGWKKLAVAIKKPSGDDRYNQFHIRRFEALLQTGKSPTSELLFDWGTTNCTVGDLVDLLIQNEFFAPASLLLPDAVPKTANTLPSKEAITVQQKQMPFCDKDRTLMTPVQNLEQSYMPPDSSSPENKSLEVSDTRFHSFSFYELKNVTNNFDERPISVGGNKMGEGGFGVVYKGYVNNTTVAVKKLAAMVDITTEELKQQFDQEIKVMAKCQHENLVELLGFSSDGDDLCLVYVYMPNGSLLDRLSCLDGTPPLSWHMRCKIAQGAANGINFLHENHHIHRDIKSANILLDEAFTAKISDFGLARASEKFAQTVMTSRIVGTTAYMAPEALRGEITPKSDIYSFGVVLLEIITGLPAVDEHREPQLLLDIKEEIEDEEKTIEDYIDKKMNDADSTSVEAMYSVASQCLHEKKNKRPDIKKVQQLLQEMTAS", "test": "Human IRAK4 kinase activity inhibition assay (IRAK4 TR-FRET assay)", "assay_type": "biochemical", "conditions": "1 mM ATP, GST-human IRAK4, average or median values", "description": "The IRAK4-inhibitory activity of the inventive substances was measured in the IRAK4 TR-FRET assay (TR-FRET = Time Resolved Fluorescence Resonance Energy Transfer) described hereinafter.\nRecombinant fusion protein from N-terminal GST (glutathione S-transferase) and human IRAK4, expressed in baculovirus-infected insect cells (Hi5, BTI-TN-5B1-4, cell line purchased from Invitrogen, catalogue No. B855-02) and purified via affinity chromatography, was used as enzyme. The substrate used for the kinase reaction was the biotinylated peptide biotin-Ahx-[…] (C-terminus in amide form) which can be purchased, for example, from Biosyntan GmbH (Berlin-Buch). For the assay, 11 different concentrations in the range from 20 µM to 0.073 nM were prepared from a 2 mM DMSO solution of the test substance. 50 nl of the respective 100fold concentrated test compound solutions in DMSO were pipetted into a black low-volume 384-well microtitre plate or a black 1536-well microtiter plate (both Greiner Bio-One, Frickenhausen, Germany), 2 µl of a solution of IRAK4 in assay buffer [50 mM HEPES pH 7.5, 5mM MgCl2, 1.0 mM dithiothreitol, 30 µM activated sodium orthovanadate, 0.1% (w/v) of bovine gamma-globulin (BGG) 0.04% (v/v) nonidet-P40 (Sigma)] were added and the mixture was incubated for 15 min to allow prebinding of the substances to the enzyme prior to the kinase reaction. […] The concentration of the IRAK4 was adjusted to the respective activity of the enzyme and set such that the assay was carried out in the linear range. Typical concentrations were in the order of about 0.2 nM. The reaction was stopped by addition of 5 µl of a solution of TR-FRET detection reagents [0.1 µM streptavidin-XL665 (Cisbio Bioassays; France, catalogue No. 610SAXLG)] and 1.5 nM anti-phosphoserine antibody [Merck Millipore, \"STK Antibody\", catalogue No. 35-002] and 0.6 nM LANCE EU-W1024-labelled anti-mouse-IgG antibody (Perkin-Elmer, product No. AD0077; alternatively, it is possible to use a terbium cryptate-labelled anti-mouse-IgG antibody from Cisbio Bioassays) in aqueous EDTA solution (100 mM EDTA, 0.4 % [w/v] bovine serum albumin [BSA] in 25 mM HEPES pH 7.5). The resulting mixture was incubated at 22°C for 1 h to allow formation of a complex of the biotinylated phosphorylated substrate and the detection reagents. The amount of the phosphorylated substrate was then evaluated by measuring the resonance energy transfer from europium chelate-labelled anti-mouse-IgG antibody to streptavidin-XL665. To this end, the fluorescence emissions at 620 nm and 665 nm were measured after excitation at 350 nm in a TR-FRET measuring instrument, for example a Rubystar (BMG Labtechnologies, Offenburg, Germany) or a Viewlux (Perkin-Elmer). The ratio of the emissions at 665 nm and 622 nm was taken as a measure of the amount of phosphorylated substrate. The data were normalized (enzyme reaction without test substance = 0% inhibition; all other assay components but no enzyme = 100% inhibition).", "units": {"IC50": "nM"}}
{"smiles": "NC1CCN(c2nc(N[C@H]3C[C@H](O)C3)nc3c2cnn3-c2cccc(C(F)(F)F)c2)CC1(F)F", "note": "(mixture of isomers) [Example I-104, trans-3-({4-[(4RS)-4-amino-3,3-difluoropiperidin-1-yl]-1-[3-(trifluoromethyl)phenyl]-1H-pyrazolo[3,4-d]pyrimidin-6-yl}amino)cyclobutanol]", "IC50": 178}
{"smiles": "NC1CCN(c2nc(NC3CCS(=O)(=O)CC3)nc3c2cnn3-c2cccc(C(F)(F)F)c2)CC1(F)F", "note": "(racemic) [Example I-105, 4-[(4RS)-4-amino-3,3-difluoropiperidin-1-yl]-N-(1,1-dioxidotetrahydro-2H-thiopyran-4-yl)-1-[3-(trifluoromethyl)phenyl]-1H-pyrazolo[3,4-d]pyrimidin-6-amine]", "IC50": 280}
{"smiles": "CC(C)(O)C1CCN(c2nc(N[C@@H]3CNC[C@H]3F)nc3c2cnn3-c2cccc(C(F)(F)F)c2)CC1", "note": "(relative stereo) [Example I-65, 2-[1-(6-{[rel-(3R,4R)-4-fluoropyrrolidin-3-yl]amino}-1-[3-(trifluoromethyl)phenyl]-1H-pyrazolo[3,4-d]pyrimidin-4-yl)piperidin-4-yl]propan-2-ol]", "IC50": 15.6}
{"smiles": "O[C@H]1COC[C@H]1Nc1nc(N2CC(N3CCOCC3)C2)c2cnn(-c3cccc(C(F)(F)F)c3)c2n1", "note": "(relative stereo) [Example I-70, rel-(3R,4R)-4-({4-[3-(morpholin-4-yl)azetidin-1-yl]-1-[3-(trifluoromethyl)phenyl]-1H-pyrazolo[3,4-d]pyrimidin-6-yl}amino)tetrahydrofuran-3-ol]", "IC50": 25}
{"smiles": "O[C@@H]1CC[C@@H]1Nc1nc(N2CC(N3CCOCC3)C2)c2cnn(-c3cccc(C(F)(F)F)c3)c2n1", "note": "(relative stereo) [Example I-73, rel-(1R,2S)-2-({4-[3-(morpholin-4-yl)azetidin-1-yl]-1-[3-(trifluoromethyl)phenyl]-1H-pyrazolo[3,4-d]pyrimidin-6-yl}amino)cyclobutanol]", "IC50": 28}
{"smiles": "O[C@@H]1CC[C@H]1Nc1nc(N2CC(N3CCOCC3)C2)c2cnn(-c3cccc(C(F)(F)F)c3)c2n1", "note": "(relative stereo) [Example I-75, rel-(1R,2R)-2-({4-[3-(morpholin-4-yl)azetidin-1-yl]-1-[3-(trifluoromethyl)phenyl]-1H-pyrazolo[3,4-d]pyrimidin-6-yl}amino)cyclobutanol]", "IC50": 14}
{"smiles": "CS(=O)(=O)[C@H]1C[C@H](Nc2nc(N3C[C@@H](O)[C@H](F)C3)c3cnn(-c4cccc(C(F)F)c4)c3n2)C1", "note": "(relative stereo) [II-16-1, rel-(3R,4R)-1-(1-[3-(difluoromethyl)phenyl]-6-{[trans-3-(methylsulfonyl)cyclobutyl]-amino)-1H-pyrazolo[3,4-d]pyrimidin-4-yl)-4-fluoropyrrolidin-3-ol]", "IC50": 1.36}
{"smiles": "C[C@H]1CN(c2nc(N[C@H]3C[C@H](S(C)(=O)=O)C3)nc3c2cnn3-c2cccc(C(F)F)c2)C[C@@H]1O", "note": "(single isomer, unassigned) [II-17-3, (3R*,4S*)-1-(1-[3-(difluoromethyl)phenyl]-6-{[trans-3-(methylsulfonyl)cyclobutyl]amino}-1H-pyrazolo[3,4-d]pyrimidin-4-yl)-4-methylpyrrolidin-3-ol]", "IC50": 4.17}
{"smiles": "CC(C)(O)C1CCN(c2nc(NC3CCS(=O)(=O)C3)nc3c2cnn3-c2cccc(C(F)(F)F)c2)CC1", "note": "(single isomer, unassigned; (-)) [Example I-4-3, (-)-2-(1-{6-[(1,1-dioxidotetrahydrothiophen-3-yl)amino]-1-[3-(trifluoromethyl)phenyl]-1H-pyrazolo[3,4-d]pyrimidin-4-yl}piperidin-4-yl)propan-2-ol]", "IC50": 68.5}
{"smiles": "O=C1C[C@@H](Nc2nc(N3CC(N4CCOCC4)C3)c3cnn(-c4cccc(C(F)(F)F)c4)c3n2)CN1", "note": "[Example I-1-2, (4R)-4-({4-[3-(morpholin-4-yl)azetidin-1-yl]-1-[3-(trifluoromethyl)phenyl]-1H-pyrazolo-[3,4-d]pyrimidin-6-yl}amino)pyrrolidin-2-one]", "IC50": 84.5}
{"smiles": "CC(C)(O)C1CCN(c2nc(N[C@H]3CNC(=O)C3)nc3c2cnn3-c2cccc(C(F)(F)F)c2)CC1", "note": "[Example I-2-2, (4R)-4-({4-[4-(2-hydroxypropan-2-yl)piperidin-1-yl]-1-[3-(trifluoromethyl)phenyl]-1H-pyrazolo[3,4-d]pyrimidin-6-yl}amino)pyrrolidin-2-one]", "IC50": 31.4}
{"smiles": "CC(C)(O)C1CCN(c2nc(NC3CNC(=O)C3)nc3c2cnn3-c2cccc(C(F)(F)F)c2)CC1", "note": "(stereo not shown) [Example I-2-3, 4-({4-[4-(2-hydroxypropan-2-yl)piperidin-1-yl]-1-[3-(trifluoromethyl)phenyl]-1H-pyrazolo[3,4-d]pyrimidin-6-yl}amino)pyrrolidin-2-one]", "IC50": 9.69}
{"smiles": "CCC1(O)CN(c2nc(N[C@H]3CNC(=O)C3)nc3c2cnn3-c2cccc(C(F)(F)F)c2)C1", "note": "[Example I-3-2, (4R)-4-({4-(3-ethyl-3-hydroxyazetidin-1-yl)-1-[3-(trifluoromethyl)phenyl]-1H-pyrazolo[3,4-d]pyrimidin-6-yl}amino)pyrrolidin-2-one]", "IC50": 167}
{"smiles": "CC(C)(O)C1CCN(c2nc(NC3CCS(=O)(=O)C3)nc3c2cnn3-c2cccc(C(F)(F)F)c2)CC1", "note": "(stereo not shown) [Example I-4-1, 2-(1-{6-[(1,1-dioxidotetrahydrothiophen-3-yl)amino]-1-[3-(trifluoromethyl)phenyl]-1H-pyrazolo[3,4-d]pyrimidin-4-yl}piperidin-4-yl)propan-2-ol]", "IC50": 12.2}
{"smiles": "CC(C)(O)C1CCN(c2nc(NC3CC(=O)NC3(C)C)nc3c2cnn3-c2cccc(C(F)(F)F)c2)CC1", "note": "(stereo not shown) [Example I-6, 4-({4-[4-(2-hydroxypropan-2-yl)piperidin-1-yl]-1-[3-(trifluoromethyl)phenyl]-1H-pyrazolo-[3,4-d]pyrimidin-6-yl}amino)-5,5-dimethylpyrrolidin-2-one]", "IC50": 76.8}
{"smiles": "CC(C)(O)C1CCN(c2nc(N[C@@H]3CCC(=O)NC3)nc3c2cnn3-c2cccc(C(F)(F)F)c2)CC1", "note": "[Example I-7-1, (5R)-5-({4-[4-(2-hydroxypropan-2-yl)piperidin-1-yl]-1-[3-(trifluoromethyl)phenyl]-1H-pyrazolo[3,4-d]pyrimidin-6-yl}amino)piperidin-2-one]", "IC50": 11.4}
{"smiles": "CC(C)(O)C1CCN(c2nc(N[C@H]3CCC(=O)NC3)nc3c2cnn3-c2cccc(C(F)(F)F)c2)CC1", "note": "[Example I-7-2, (5S)-5-({4-[4-(2-hydroxypropan-2-yl)piperidin-1-yl]-1-[3-(trifluoromethyl)phenyl]-1H-pyrazolo[3,4-d]pyrimidin-6-yl}amino)piperidin-2-one]", "IC50": 33.8}
{"smiles": "CN1CC(Nc2nc(N3CCC(C(C)(C)O)CC3)c3cnn(-c4cccc(C(F)(F)F)c4)c3n2)CC1=O", "note": "(stereo not shown) [Example I-8, 4-({4-[4-(2-hydroxypropan-2-yl)piperidin-1-yl]-1-[3-(trifluoromethyl)phenyl]-1H-pyrazolo[3,4-d]pyrimidin-6-yl}amino)-1-methylpyrrolidin-2-one]", "IC50": 41.4}
{"smiles": "CN1CC[C@@H](Nc2nc(N3CCC(C(C)(C)O)CC3)c3cnn(-c4cccc(C(F)(F)F)c4)c3n2)C1=O", "note": "[Example I-9, (3R)-3-({4-[4-(2-hydroxypropan-2-yl)piperidin-1-yl]-1-[3-(trifluoromethyl)phenyl]-1H-pyrazolo[3,4-d]pyrimidin-6-yl}amino)-1-methylpyrrolidin-2-one]", "IC50": 59.5}
